According to patent publication US4500526A, “Cephalosporin derivatives” (Bristol-Myers Company, priority 1983, dated 1985):
In brackets after ≈: the same amount, converted by molar mass.

Columns and labels:
[1] = tested on: Penicillinsensitive S. aureus (5 strains); test: MIC, two-fold serial agar dilution, group (G+)-Ia; type: cell-based; conditions: Staphylococcus aureus; (G+)-Ia, 5 strains, Mueller-Hinton agar; read-out: Geometric Mean of MIC
Procedure, shortened: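 Two-fold serial agar dilution in Mueller-Hinton agar. Compound weights corrected for purity. Group comprises 5 penicillin-sensitive S. aureus strains.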

[2] = tested on: Ps. aeruginosa (6 strains); test: MIC, two-fold serial agar dilution, group (G-)-III; type: cell-based; conditions: Pseudomonas aeruginosa; (G-)-III, 6 strains, Mueller-Hinton agar; read-out: Geometric Mean of MIC
Protocol: In the primary evaluation of the compounds of this invention, the Minimum Inhibitory Concentrations (MIC's) of the compounds were determined by the two-fold serial agar dilution method in Mueller-Hinton agar against 32 strains of test organisms in six groups. The sample weights of the test compounds were adjusted according to the purity of each compound, so as to give a more accurate measure of the MIC's.
(G-)III: Ps. aeruginosa (6 strains)

P. aeruginosa A9843 = test: Median protective dose in infected mice; type: in vivo; conditions: Pseudomonas aeruginosa, im, immediately after intraperitoneal challenge, read-out: PD50
Protocol: (§1) The median protective dose (PD50) of some of the preferred compounds against various microorganisms was determined in mice by intramuscular administration of the test compound immediately after an intraperitoneal bacterial challenge.

S. aureus Smith = test: Median protective dose in infected mice; type: in vivo; conditions: Staphylococcus aureus, im, immediately after intraperitoneal challenge, read-out: PD50
Protocol: as §1

E. coli Juhl = test: Median protective dose in infected mice; type: in vivo; conditions: Escherichia coli, im, immediately after intraperitoneal challenge, read-out: PD50
Protocol: as §1

P. aeruginosa A21509 = test: Median protective dose in infected mice; type: in vivo; conditions: Pseudomonas aeruginosa, im, immediately after intraperitoneal challenge, read-out: PD50
Protocol: as §1

S. aureus BX-1633 = test: Median protective dose in infected mice; type: in vivo; conditions: Staphylococcus aureus, BX1633, im, immediately after intraperitoneal challenge, read-out: PD50
Protocol: as §1

[3] = Mouse blood levels after single intramuscular injection; type: in vivo, mice; conditions: in vivo, im, 20 mg/kg
Procedure, shortened: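 Mice received a single intramuscular dose of 20 mg/kg in 0.1M phosphate buffer, pH 7. Orbital sinus blood was sampled over time and bioassayed on Nutrient Agar (pH 6.6) with E. coli Ess-22-31; t1/2 and AUC were derived from the blood levels.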

[4] = tested on: Cephalothinresistant E. coli (3 strains) and Kl. pneumoniae (3 strains); test: MIC, two-fold serial agar dilution, group (G-)-Ib; type: cell-based; conditions: Escherichia coli, read-out: Geometric Mean of MIC
Procedure, shortened: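 MICs by two-fold serial agar dilution in Mueller-Hinton agar against cephalothin-resistant E. coli and Klebsiella pneumoniae strains. Compound weights were corrected for purity.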

[5] = tested on: M. morganii (1 strain), Ent. cloacae (2 strains) and Ser. marcescens (2 strains); test: MIC, two-fold serial agar dilution, group (G-)-II; type: cell-based; conditions: (G-)-II, 5 strains, Mueller-Hinton agar; read-out: Geometric Mean of MIC
Procedure, shortened: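 Two-fold serial agar dilution in Mueller-Hinton agar; test-compound sample weights adjusted for purity of each compound before MIC determination.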

[6] = tested on: Cephalothinsensitive E. coli (2 strains), Kl. pneumoniae (1 strain) and Pr. mirabilis (2 strains); test: MIC, two-fold serial agar dilution, group (G-)-Ia; type: cell-based; conditions: 5 strains, Mueller-Hinton agar, read-out: Geometric Mean of MIC
Procedure, shortened: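 Mueller-Hinton agar, two-fold serial dilution; test compound weights corrected for purity so MICs reflect actual compound content.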

[7] = tested on: Penicillinresistant S. aureus (5 strains); test: MIC, two-fold serial agar dilution, group (G+)-Ib; type: cell-based; conditions: Staphylococcus aureus; (G+)-Ib, 5 strains, Mueller-Hinton agar; read-out: Geometric Mean of MIC
Procedure, shortened: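 Two-fold serial agar dilution in Mueller-Hinton agar against penicillin-resistant S. aureus (5 strains). Test compound weights adjusted for purity.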

SMILES | MIC [1] | MIC [2] | ED50 (P. aeruginosa A9843) | ED50 (S. aureus Smith) | ED50 (E. coli Juhl) | ED50 (P. aeruginosa A21509) | ED50 (S. aureus BX-1633) | AUC [3] | concentration at 10 min [3] | concentration at 20 min [3] | concentration at 0.5 h [3] | concentration at 40 min [3] | concentration at 50 min [3] | concentration at 1 h [3] | concentration at 1.5 h [3] | concentration at 2 h [3] | half-life [3] | MIC [4] | MIC [5] | MIC [6] | further results
CO/N=C(\C(=O)NC1C(=O)N2C(C(=O)[O-])=C(C[n+]3ccc4scnc4c3)CS[C@H]12)c1csc(N)n1 (stereo partly drawn) [Ia, 7-[(Z)-2-(2-Aminothiazol-4-yl)-2-methoxyiminoacetamido]-3-{(5-thiazolo[4,5-c]pyridinio)methyl}-3-cephem-4-carboxylate] | 0.42 µg/mL (≈ 0.79 µM) | 2.6 µg/mL (≈ 4.89 µM) | 7.2 mg/kg | 0.45 mg/kg | 0.012 mg/kg | 6.25 mg/kg | 0.75 mg/kg | 15000 ng·h/mL | 20000 ng/mL | 15000 ng/mL | 11000 ng/mL | 8600 ng/mL | 6900 ng/mL | 6500 ng/mL | 3100 ng/mL | 2100 ng/mL | 35 min | 0.16 µg/mL (≈ 0.301 µM) | 0.16 µg/mL (≈ 0.301 µM) | 0.02 µg/mL (≈ 0.0376 µM) | MIC [7]: 0.96 µg/mL (≈ 1.81 µM)
CC(C)(O/N=C(\C(=O)NC1C(=O)N2C(C(=O)[O-])=C(C[n+]3ccc4scnc4c3)CS[C@H]12)c1csc(N)n1)C(=O)O (stereo partly drawn) [Id, 7-[(Z)-2-(2-Aminothiazol-4-yl)-2-(2-carboxyprop-2-oxyimino)-acetamido]-3-{(5-thiazolo[4,5-c]pyridinio)methyl}-3-cephem-4-carboxylate] | 4.4 µg/mL (≈ 7.29 µM) | 1.4 µg/mL (≈ 2.32 µM) | 4.3 mg/kg | 7.2 mg/kg | 0.082 mg/kg | 5 mg/kg | 21 mg/kg | 9500 ng·h/mL | 16000 ng/mL | 14000 ng/mL | 11000 ng/mL | 6100 ng/mL | 3900 ng/mL | 2500 ng/mL | 720 ng/mL | < 200 ng/mL | 16 min | 0.71 µg/mL (≈ 1.18 µM) | 0.88 µg/mL (≈ 1.46 µM) | 0.04 µg/mL (≈ 0.0663 µM) | MIC [7]: 8.8 µg/mL (≈ 14.6 µM)
